Reference: patent US6989371B1, “Bombesin analogs for treatment of cancer” (Dabur Research Foundation, priority 1996, dated 2006)
Non-standard residues stand in square brackets, D forms with d. Residues, ends and D or L forms follow the SMILES beside them. Aib = CC(C)(N)C(=O)O

Assays:
Experiment in all cases: MTT cytotoxicity assay, 72 hours (Example 13)
Format in all cases: cell-based, human
DU145 (prostate) = tested on: DU145 (prostate)
Procedure: (§1) The cytotoxic activity of other synthesized bombesin analogs was tested on eight human tumor cell lines namely HT-29, SW620, PTC (all colon), PA-1 (ovary), A549 (lung), HBL100(breast), MOLT-4 (leukemia) and DU145 (prostate). The tumor cells were collected at exponential growth phase and resuspended in medium (1.5×10^6) cells/ml in RPMI 1640 containing 10% FBS). 150 μl of medium was added to the wells of a 96-well tissue culture plate (Nunc, Denmark) followed by 30 μl of cell suspension. The plate was left in incubator (37° C., 5% CO2 overnight. 20 μl of the peptide (10^−7×10^×10M concentration) was added to marked wells of the 96-well plate. Each concentration was plated in cells served as blanks. A total volume of 200 μl was ensured in each well and plate was left in incubator (37° C., 5% CO2). After 72 hours of incubation an MTT assay was performed and percentage cytotoxicity was calculated with respect to control cells. Following tables show the cytotoxicity achieved on various cell lines at different concentrations.

HBL100 (breast) = settings: HBL
Procedure: as §1

MOLT-4 (leukemia) = tested on: MOLT-4 (leukemia)
Procedure: as §1

A549 (lung) = tested on: A549 (lung)
Procedure: as §1

PTC (colon) = tested on: PTC (colon)
Procedure: as §1

HT-29 (colon) = tested on: HT-29 (colon)
Procedure: as §1

SW620 (colon) = tested on: SW620 (colon)
Procedure: as §1

PA-1 (ovary) = tested on: PA-1 (ovary)
Procedure: as §1

For `CC[C@H](C)[C@H](NC(=O)[C@H](Cc1c[nH]cn1)NC(=O)CNC(=O)[C@@H](NC(=O)C(C)(C)NC(=O)[C@H](Cc1c[nH]c2ccccc12)NC(=O)[C@H](CCC(N)=O)NC(=O)[C@H](N)Cc1ccccc1)C(C)C)C(N)=O` [SEQ ID: 6, D-Phe-Gln-Trp-Aib-Val-Gly-His-Ile-NH2] (H-[dF]QW[Aib]VGHI-NH2; N-terminus assumed), the “Percent Cytotoxicity” value (DU145 (prostate); DU145, 1 nM) was 3.9 ± 5.2%, the “Percent Cytotoxicity” value (DU145 (prostate); DU145, 10 nM) was 16.6% and the “Percent Cytotoxicity” value (DU145 (prostate); DU145, 100 nM) was 13.7 ± 0.9%. The “Percent Cytotoxicity” value (DU145 (prostate); DU145, 100 PM) was 12.1 ± 0.8%, the “Percent Cytotoxicity” value (HBL100 (breast); 1 nM) was 1.2 ± 0.3% and the “Percent Cytotoxicity” value (HBL100 (breast); 10 nM) was 6.0 ± 0.4%. For the same molecule, the “Percent Cytotoxicity” value (HBL100 (breast); 100 nM) was 17.0 ± 0.5%, the “Percent Cytotoxicity” value (HBL100 (breast); 100 PM) was “NIL” and the “Percent Cytotoxicity” value (MOLT-4 (leukemia); MOLT4, 1 nM) was 0.8 ± 0.1%. The “Percent Cytotoxicity” value (MOLT-4 (leukemia); MOLT4, 10 nM) was 20.4 ± 4.3%, the “Percent Cytotoxicity” value (MOLT-4 (leukemia); MOLT4, 100 nM) was “NIL” and the “Percent Cytotoxicity” value (MOLT-4 (leukemia); MOLT4, 100 PM) was 11.0 ± 0.6%. The “Percent Cytotoxicity” value (A549 (lung); A549, 1 nM) was 13.0 ± 0.8%, the “Percent Cytotoxicity” value (A549 (lung); A549, 10 nM) was 3.2 ± 0.1% and the “Percent Cytotoxicity” value (A549 (lung); A549, 100 nM) was 1.9 ± 0.6%. The “Percent Cytotoxicity” value (A549 (lung); A549, 100 PM) was 12.4 ± 0.7%, the “Percent Cytotoxicity” value (PTC (colon); 1 nM) was 9.1 ± 0.7% and the “Percent Cytotoxicity” value (PTC (colon); 10 nM) was 10.4 ± 0.8%. For the same molecule, the “Percent Cytotoxicity” value (PTC (colon); 100 nM) was 24.7 ± 5.2%, the “Percent Cytotoxicity” value (PTC (colon); 100 PM) was 10.1 ± 0.6% and the “Percent Cytotoxicity” value (HT-29 (colon); HT29, 1 nM) was 26.7 ± 4.2%. For the same molecule, the “Percent Cytotoxicity” value (HT-29 (colon); HT29, 10 nM) was 6.8 ± 0.7%, the “Percent Cytotoxicity” value (HT-29 (colon); HT29, 100 nM) was “NIL” and the “Percent Cytotoxicity” value (HT-29 (colon); HT29, 100 PM) was 16.8 ± 0.5%. The “Percent Cytotoxicity” value (SW620 (colon); SW620, 1 nM) was 33.5 ± 5.2%, the “Percent Cytotoxicity” value (SW620 (colon); SW620, 10 nM) was 38.1 ± 7.3% and the “Percent Cytotoxicity” value (SW620 (colon); SW620, 100 nM) was 23.5 ± 5.1%. For the same molecule, the “Percent Cytotoxicity” value (SW620 (colon); SW620, 100 PM) was 24.8 ± 4.2%, the “Percent Cytotoxicity” value (PA-1 (ovary); PA-1, 1 nM) was 7.4 ± 1.0% and the “Percent Cytotoxicity” value (PA-1 (ovary); PA-1, 10 nM) was 8.7 ± 1.9%. For the same molecule, the “Percent Cytotoxicity” value (PA-1 (ovary); PA-1, 100 nM) was 9.2 ± 1.0% and the “Percent Cytotoxicity” value (PA-1 (ovary); PA-1, 100 PM) was 11.1 ± 2.9%.
With `CCCC(CCC)(NC(=O)[C@@H](NC(=O)[C@H](C)NC(=O)[C@@H](Cc1c[nH]c2ccccc12)NC(=O)[C@H](CCC(N)=O)NC(=O)[C@H](N)Cc1ccccc1)C(C)C)C(=O)N[C@@H](Cc1c[nH]cn1)C(=O)N[C@@H](CC(C)C)C(N)=O` [SEQ ID: 8, D-Phe-Gln-D-Trp-Ala-Val-Dpg-His-Leu-NH2] the “Percent Cytotoxicity” value (DU145 (prostate); DU145, 1 nM) was 21.4 ± 6.2%, the “Percent Cytotoxicity” value (DU145 (prostate); DU145, 10 nM) was 22.5 ± 2.2% and the “Percent Cytotoxicity” value (DU145 (prostate); DU145, 100 nM) was 19.1 ± 2.1%. The “Percent Cytotoxicity” value (DU145 (prostate); DU145, 100 PM) was 28.1 ± 3.5%, the “Percent Cytotoxicity” value (HBL100 (breast); 1 nM) was 12.2 ± 1.9% and the “Percent Cytotoxicity” value (HBL100 (breast); 10 nM) was 14.4 ± 2.1%. The “Percent Cytotoxicity” value (HBL100 (breast); 100 nM) was 11.9 ± 2.1%, the “Percent Cytotoxicity” value (HBL100 (breast); 100 PM) was 12.1 ± 1.9% and the “Percent Cytotoxicity” value (MOLT-4 (leukemia); MOLT4, 1 nM) was 9.3 ± 0.2%. For the same molecule, the “Percent Cytotoxicity” value (MOLT-4 (leukemia); MOLT4, 10 nM) was 12.8 ± 3.3%, the “Percent Cytotoxicity” value (MOLT-4 (leukemia); MOLT4, 100 nM) was 2.6 ± 0.1% and the “Percent Cytotoxicity” value (MOLT-4 (leukemia); MOLT4, 100 PM) was 16.6 ± 3.1%. For the same molecule, the “Percent Cytotoxicity” value (A549 (lung); A549, 1 nM) was 19.7 ± 3.1%, the “Percent Cytotoxicity” value (A549 (lung); A549, 10 nM) was 20.7 ± 2.2% and the “Percent Cytotoxicity” value (A549 (lung); A549, 100 nM) was 21.7 ± 3.3%. The “Percent Cytotoxicity” value (A549 (lung); A549, 100 PM) was 17.0 ± 2.7%, the “Percent Cytotoxicity” value (PTC (colon); 1 nM) was 12.5 ± 1.7% and the “Percent Cytotoxicity” value (PTC (colon); 10 nM) was 5.4 ± 1.7%. The “Percent Cytotoxicity” value (PTC (colon); 100 nM) was 8.7 ± 2.1%, the “Percent Cytotoxicity” value (PTC (colon); 100 PM) was 12.3 ± 1.9% and the “Percent Cytotoxicity” value (HT-29 (colon); HT29, 1 nM) was 34.7 ± 3.3%. For the same molecule, the “Percent Cytotoxicity” value (HT-29 (colon); HT29, 10 nM) was 18.9 ± 4.2%, the “Percent Cytotoxicity” value (HT-29 (colon); HT29, 100 nM) was 34.8 ± 4.2% and the “Percent Cytotoxicity” value (HT-29 (colon); HT29, 100 PM) was 21.4 ± 3.1%. For the same molecule, the “Percent Cytotoxicity” value (SW620 (colon); SW620, 1 nM) was 20.6 ± 3.9%, the “Percent Cytotoxicity” value (SW620 (colon); SW620, 10 nM) was 33.0 ± 3.8% and the “Percent Cytotoxicity” value (SW620 (colon); SW620, 100 nM) was 29.4 ± 2.9%. For the same molecule, the “Percent Cytotoxicity” value (SW620 (colon); SW620, 100 PM) was 20.6 ± 3.9%, the “Percent Cytotoxicity” value (PA-1 (ovary); PA-1, 1 nM) was 23.8 ± 4.2% and the “Percent Cytotoxicity” value (PA-1 (ovary); PA-1, 10 nM) was 20.4 ± 3.0%. The “Percent Cytotoxicity” value (PA-1 (ovary); PA-1, 100 nM) was 10.4 ± 3.7% and the “Percent Cytotoxicity” value (PA-1 (ovary); PA-1, 100 PM) was 23.3 ± 5.5%.
For `CC(C)C[C@H](NC(=O)[C@H](Cc1c[nH]cn1)NC(=O)CNC(=O)[C@@H](NC(=O)C(C)(C)NC(=O)[C@H](Cc1c[nH]c2ccccc12)NC(=O)[C@H](CCC(N)=O)NC(=O)[C@H](N)Cc1ccccc1)C(C)C)C(N)=O` [SEQ ID: 4, D-Phe-Gln-Trp-Aib-Val-Gly-His-Leu-NH2] (H-[dF]QW[Aib]VGHL-NH2; N-terminus assumed), the “Percent Cytotoxicity” value (DU145 (prostate); DU145, 1 nM) was 22.8 ± 4.1%, the “Percent Cytotoxicity” value (DU145 (prostate); DU145, 10 nM) was 23.4 ± 3.3% and the “Percent Cytotoxicity” value (DU145 (prostate); DU145, 100 nM) was 24.9 ± 3.2%. For the same molecule, the “Percent Cytotoxicity” value (DU145 (prostate); DU145, 100 PM) was 23.2 ± 3.7%, the “Percent Cytotoxicity” value (HBL100 (breast); 1 nM) was 30.6 ± 4.2% and the “Percent Cytotoxicity” value (HBL100 (breast); 10 nM) was 33.2 ± 5.2%. For the same molecule, the “Percent Cytotoxicity” value (HBL100 (breast); 100 nM) was 25.0 ± 3.1%, the “Percent Cytotoxicity” value (HBL100 (breast); 100 PM) was 33.0 ± 3.6% and the “Percent Cytotoxicity” value (MOLT-4 (leukemia); MOLT4, 1 nM) was 19.3 ± 1.8%. For the same molecule, the “Percent Cytotoxicity” value (MOLT-4 (leukemia); MOLT4, 10 nM) was 28.7 ± 4.2%, the “Percent Cytotoxicity” value (MOLT-4 (leukemia); MOLT4, 100 nM) was 16.2 ± 0.6% and the “Percent Cytotoxicity” value (MOLT-4 (leukemia); MOLT4, 100 PM) was 28.5 ± 4.8%. The “Percent Cytotoxicity” value (A549 (lung); A549, 1 nM) was 22.7 ± 2.9%, the “Percent Cytotoxicity” value (A549 (lung); A549, 10 nM) was 20.6 ± 1.9% and the “Percent Cytotoxicity” value (A549 (lung); A549, 100 nM) was 20.0 ± 2.2%. For the same molecule, the “Percent Cytotoxicity” value (A549 (lung); A549, 100 PM) was 20.7 ± 4.2%, the “Percent Cytotoxicity” value (PTC (colon); 1 nM) was 8.7 ± 1.5% and the “Percent Cytotoxicity” value (PTC (colon); 10 nM) was 2.1 ± 0.2%. The “Percent Cytotoxicity” value (PTC (colon); 100 nM) was 9.8 ± 1.7%, the “Percent Cytotoxicity” value (PTC (colon); 100 PM) was 14.9 ± 1.1% and the “Percent Cytotoxicity” value (HT-29 (colon); HT29, 1 nM) was 39.6 ± 4.3%. For the same molecule, the “Percent Cytotoxicity” value (HT-29 (colon); HT29, 10 nM) was 38.9 ± 7.3%, the “Percent Cytotoxicity” value (HT-29 (colon); HT29, 100 nM) was 38.6 ± 5.3% and the “Percent Cytotoxicity” value (HT-29 (colon); HT29, 100 PM) was 43.3 ± 4.4%. For the same molecule, the “Percent Cytotoxicity” value (SW620 (colon); SW620, 1 nM) was 27.8 ± 2.8%, the “Percent Cytotoxicity” value (SW620 (colon); SW620, 10 nM) was 23.2 ± 2.0% and the “Percent Cytotoxicity” value (SW620 (colon); SW620, 100 nM) was 34.3 ± 4.2%. For the same molecule, the “Percent Cytotoxicity” value (SW620 (colon); SW620, 100 PM) was 30.4 ± 3.2%, the “Percent Cytotoxicity” value (PA-1 (ovary); PA-1, 1 nM) was 16.2 ± 2.9% and the “Percent Cytotoxicity” value (PA-1 (ovary); PA-1, 10 nM) was 4.3 ± 0.2%. The “Percent Cytotoxicity” value (PA-1 (ovary); PA-1, 100 nM) was 2.3 ± 2.9% and the “Percent Cytotoxicity” value (PA-1 (ovary); PA-1, 100 PM) was 12.6 ± 2.9%.
